Measurements published in patent US20100022514A1, “Heterocycle Compounds and Methods of Use Thereof” (NORVARTIS AG, priority 2006, published 2010).
Where two headings read alike, the source gives them in different places.

What was measured:
[1] = test system: p21 promoter (p21-luc) in H1299 cells; test: p21 promoter luciferase assay using stably transfected p21-luc in H1299 cells; assay type: cell-based; conditions: Homo sapiens, NCI-H1299
Procedure: The cell lines used are derived from H1299 (p21-luc). The growth media used is RPMI 1640, 10% FBS, 1% Pen/Strep and the selection media added is 500 μg/mL Geneticin (Gibco). The buffer used is 5× cell culture lysis buffer (Promega #E1531), stored at −20 C and the Luciferase assay reagent (Promega #E1483) is stored at −70° C. The results of the assay are analyzed using Wallac Software.
To assay Luciferase, the cell culture medium is removed after one day of growth and the flasks are washed once with PBS. The cells are trypsinized in 20 mL of media and the trypsin is neutralized. The cells are counted (0.5-1 mL) on a Vi-Cell XR cell viability analyzer.
Cells are then diluted to a concentration of approximately 5000 cells/200 μL, and 190 μL samples are aliquoted into each well of a Costar white 96-well TC treated white bottom plate with lid (Costar #3917). Plates are then incubated overnight at 37 C.
After a further day, a sample of the compound is added to the wells for assay.
After a further day, the cells are lysed and the luciferase activity of the lysed cells is measured. Each well is washed twice with PBS and 20 μL/well of 1× cell culture lysis buffer (dilute 5× to 1× in distilled water) is added to each well. The microtiter plates are then shaken on a microtiter plate shaker for 20 minutes at room temperate at a speed setting of 5-6. After removal from the shaker, 100 μL of Luciferase Reagent is added to each well. Each microtiter plate is then read on Wallac Envision instrument.

HDAC-1 = molecular target: T1, HDAC-1 (Homo sapiens, UniProt Q13547); test: Deacetylase fluorescence assay (HDAC-1); assay type: biochemical
T1 construct: made in house
Procedure: Conventional methods are used to express deacetylase enzymes and purify them from lysed cells. The following example describes an exemplary procedure, however equivalent procedures are within the scope of the invention.
The cell line used is a derivative of 293 cells overexpressing a fusion of the gene encoding each deacetylase protein with a nucleotide sequence encoding the Flag marker.
Cells are grown in Optimem, 2% Fetal Calf Serum, Pen/Strep. For enzyme preparation, Lysis buffer (IPLS) is 50 mM Tris-HCl, pH 7.5, 120 mM NaCl, 0.5 mM EDTA and 0.5% Nonidet P-40, to which is added one tablet of Protease inhibitors (Roche 11836170001) per 10 ml buffer. Other buffers are IPHS, which is IPLS containing 1 M NaCl; TBS (Sigma #T5912) dilute 10× stock to 1× with dH2O; HD buffer: 10 mM Tris pH 8.0 (1M Stock) 10 mM NaCl (5M Stock), 10% glycerol, and for dialysis: 400 μM PMSF is added (for 2 L: use 8 ml 100 mM Stock). Protease inhibitors (Complete mini, Boehringer Mannheim), 1 tablet/10 mL are added to all buffers but not used in buffers for enzyme assays.
Cells are harvested without using trypsin, and most cells are obtained easily in PBS, with gentle striking or agitation of flasks if necessary. More adherent cells are scraped in PBS. Cells are grown in 500 cm^2 trays, from which about half of the media is aspirated (50 ml total), then cells are scraped in the rest of the media and transferred to a centrifuge tube. Trays are washed with 25 ml cold PBS, scraped again to collect additional cells, and centrifuged at 1500 rpm at 4° C. for 5 min. Cells are washed at least 3 times in PBS to remove growth media, pelleting cells after each wash by centrifugation at 1500 rpm for 5 minutes. After washing, PBS is removed and the resulting cell pellet frozen at −80° C. for storage prior to purification.
For purification, cells are resuspended in lysis buffer, 12 ml of IPLS for cells collected from 10 500 cm trays. Cells are lysed at 4° C. for 3 hrs with rocking, and debris is removed by centrifugation for 20 min at 17,000 rpm in 30 ml centrifuge tubes. If supernatant is not clear afterward, centrifugation of the supernatant is repeated. Protein concentration of the whole cell lysate is determined (generally in the range of about 2-5 mg/ml).
For immunoprecipitation per mg of protein, 15 μL of anti-Flag M2-Agarose Affinity beads (Sigma #A2220) is used. Beads are prepared by washing 3 times with 10× bead volume of PBS and 1 time with IPLS, with centrifugation of the washes at 1500 rpm for 5 min. Whole cell lysate is incubated with the Ab-beads overnight at 4° C. Then beads are centrifuged and washed in 5× volume of the following buffers: three times in IPLS (30 sec at 4° C., spin at 1500 RPM for 5 min); three times in IPHS; and three times in TBS buffer. After each centrifugation, the supernatant is aspirated, leaving the pellet as dry as possible but avoiding sucking up any of the beads.
To elute the enzyme, beads are resuspended in 5× bead volume of TBS with protease inhibitor (Roche 11836170001) 1 tablet/10 mL. Enzyme is eluted with 400 μg/mL Flag peptide (Sigma #F-3290) for 3 hrs at 4° C. on rotator. Then beads are centrifuged, and the supernatant is transferred to a new tube to which is added 1/10 volume of glycerol. The supernatant is transferred to a dialysis cassette (Pierce #66410) using a 3 cc syringe and 18 G needle, and is dialyze sup in 2 L HD buffer for 2 hrs at 4° C. (1 L/hour). The resulting purified deacetylase is divided into aliquots (300 μL/tube), is snap frozen in dry ice bath, and is stored at −80° C.
For assay of deacetylase an assay based on Deacetylase Fluorescent Activity Assay/Drug Discovery Kit (BioMol # AK500) is used, however any equivalent deacetylase assay is within the scope of the invention.
The Fluorescent Assay Buffer (FAB) contains: 25 mM Tris-HCl, pH 8.0, 137 mM NaCl, 2.7 mM KCl and 1 mM MgCl2. […]

T1 sequence (Q13547 whole entry): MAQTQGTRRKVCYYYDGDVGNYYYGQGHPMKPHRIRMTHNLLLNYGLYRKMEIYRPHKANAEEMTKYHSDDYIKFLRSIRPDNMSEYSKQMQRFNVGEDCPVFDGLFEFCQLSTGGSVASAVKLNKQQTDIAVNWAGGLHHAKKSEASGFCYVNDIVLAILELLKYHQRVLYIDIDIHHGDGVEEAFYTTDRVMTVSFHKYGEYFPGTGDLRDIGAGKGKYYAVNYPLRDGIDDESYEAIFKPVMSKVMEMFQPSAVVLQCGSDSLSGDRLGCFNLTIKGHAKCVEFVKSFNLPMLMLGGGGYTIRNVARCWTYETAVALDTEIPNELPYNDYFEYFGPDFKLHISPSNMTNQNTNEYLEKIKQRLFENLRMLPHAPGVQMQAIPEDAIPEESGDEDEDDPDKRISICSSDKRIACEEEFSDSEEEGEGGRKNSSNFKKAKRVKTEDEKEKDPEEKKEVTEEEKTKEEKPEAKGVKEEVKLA

| SMILES | AC50 [1] [nM] | IC50 (HDAC-1; read-out: HDAC-1 IC50) [nM] | IC50 (HDAC-1) [nM] |
| --- | --- | --- | --- |
| O=C(/C=C/c1ccc2c(c1)CN(CCc1c[nH]nc1-c1ccccc1)CC2)NO [Example 47, (E)-N-Hydroxy-3-{2-[2-(3-phenyl-1H-pyrazol-4-yl)-ethyl]-1,2,3,4-tetrahydro-isoquinolin-7-yl}-acrylamide] | > 1000 | 100 to 1000 | – |
| O=C(/C=C/c1ccc2c(c1)CN(C(=O)C1CCCCC1)C2)NO [Example 21, (E)-3-(2-Cyclohexanecarbonyl-2,3-dihydro-1H-isoindol-5-yl)-N-hydroxy-acrylamide] | > 1000 | 100 to 1000 | – |
| CN(C)c1ccc(C(=O)N2CCc3cc(/C=C/C(=O)NO)ccc3C2)cc1 [Example 86, (E)-3-[2-(4-Dimethylamino-benzoyl)-1,2,3,4-tetrahydro-isoquinolin-6-yl]-N-hydroxy-acrylamide] | > 1000 | 100 to 1000 | – |
| O=C(/C=C/c1ccc2c(c1)CN(S(=O)(=O)Cc1ccccc1)C2)NO [Example 20, (E)-N-Hydroxy-3-(2-phenylmethanesulfonyl-2,3-dihydro-1H-isoindol-5-yl)-acrylamide] | > 1000 | 100 to 1000 | – |
| Cc1nn2ccccc2c1CCN1CCc2ccc(/C=C/C(=O)NO)cc2C1 [Example 40, (E)-N-Hydroxy-3-{2-[2-(2-methyl-pyrazolo[1,5-a]pyridin-3-yl)-ethyl]-1,2,3,4-tetrahydro-isoquinolin-7-yl}-acrylamide] | > 1000 | < 100 | – |
| O=C(/C=C/c1ccc2c(c1)CN(CCc1cnn3ccccc13)C2)NO [Example 28, (E)-N-Hydroxy-3-[2-(2-pyrazolo[1,5-a]pyridin-3-yl-ethyl)-2,3-dihydro-1H-isoindol-5-yl]-acrylamide] | > 1000 | < 100 | – |
| COc1ccc(S(=O)(=O)N2CCc3cc(/C=C/C(=O)NO)ccc3C2)cc1 [Example 82, (E)-N-Hydroxy-3-[2-(4-methoxy-benzenesulfonyl)-1,2,3,4-tetrahydro-isoquinolin-6-yl]-acrylamide] | > 1000 | 100 to 1000 | – |
| Cc1ccccc1S(=O)(=O)N1Cc2ccc(/C=C/C(=O)NO)cc2C1 [Example 14, (E)-N-Hydroxy-3-[2-(toluene-2-sulfonyl)-2,3-dihydro-1H-isoindol-5-yl]-acrylamide] | > 1000 | 100 to 1000 | – |
| COc1cccc(S(=O)(=O)N2Cc3ccc(/C=C/C(=O)NO)cc3C2)c1 [Example 13, (E)-N-Hydroxy-3-[2-(3-methoxy-benzenesulfonyl)-2,3-dihydro-1H-isoindol-5-yl]-acrylamide] | > 1000 | < 100 | – |
| CN(C)c1ccc(C(=O)N2CCc3ccc(CCC(=O)NO)cc3C2)cc1 [Example 90, 3-[2-(4-Dimethylamino-benzoyl)-1,2,3,4-tetrahydro-isoquinolin-7-yl]-N-hydroxy-propionamide] | > 1000 | 100 to 1000 | – |
| Cc1c(CCN2CCc3ccc(/C=C/C(=O)NO)cc3C2)cnn1-c1ccccc1 [Example 49, (E)-N-Hydroxy-3-{2-[2-(5-methyl-1-phenyl-1H-pyrazol-4-yl)-ethyl]-1,2,3,4-tetrahydro-isoquinolin-7-yl}-acrylamide] | > 1000 | 100 to 1000 | – |
| O=C(/C=C/c1ccc2c(c1)CN(CCC1CCCCC1)C2)NO [Example 35, (E)-3-[2-(2-Cyclohexyl-ethyl)-2,3-dihydro-1H-isoindol-5-yl]-N-hydroxy-acrylamide] | > 1000 | 100 to 1000 | – |
| COc1ccc(CC(=O)N2CCc3ccc(/C=C/C(=O)NO)cc3C2)cc1 [Example 65, (E)-N-Hydroxy-3-{2-[2-(4-methoxy-phenyl)-acetyl]-1,2,3,4-tetrahydro-isoquinolin-7-yl}-acrylamide] | > 1000 | < 100 | – |
| CC(C)(C)c1[nH]c2ncccc2c1CCN1CCc2ccc(/C=C/C(=O)NO)cc2C1 [Example 43, (E)-3-{2-[2-(2-tert-Butyl-1H-pyrrolo[2,3-b]pyridin-3-yl)-ethyl]-1,2,3,4-tetrahydro-isoquinolin-7-yl}-N-hydroxy-acrylamide] | > 1000 | < 100 | – |
| Cc1[nH]c2ccccc2c1CCN1CCc2cc(/C=C/C(=O)NO)ccc2C1 [Example 70, (E)-N-Hydroxy-3-{2-[2-(2-methyl-1H-indol-3-yl)-ethyl]-1,2,3,4-tetrahydro-isoquinolin-6-yl}-acrylamide] | 100 to 1000 | – | < 100 |
| Cc1nn2ccccc2c1CCN1CCc2ccc(/C=C/C(=O)NO)cc2CC1 [Example 71, (E)-N-Hydroxy-3-{3-[2-(2-methyl-pyrazolo[1,5-a]pyridin-3-yl)-ethyl]-2,3,4,5-tetrahydro-1H-benzo[d]azepin-7-yl}-acrylamide] | > 1000 | 100 to 1000 | – |
| Cc1cccc(S(=O)(=O)N2Cc3ccc(/C=C/C(=O)NO)cc3C2)c1 [Example 11, (E)-N-Hydroxy-3-[2-(toluene-3-sulfonyl)-2,3-dihydro-1H-isoindol-5-yl]-acrylamide] | > 1000 | < 100 | – |
| O=C(/C=C/c1ccc2c(c1)CN(S(=O)(=O)c1ccccc1)C2)NO [Example 5, (E)-3-(2-Benzenesulfonyl-2,3-dihydro-1H-isoindol-5-yl)-N-hydroxy-acrylamide] | > 1000 | 100 to 1000 | – |
| O=C(/C=C/c1ccc2c(c1)CN(CCc1ccccc1)CC2)NO [Example 44, (E)-N-Hydroxy-3-(2-phenethyl-1,2,3,4-tetrahydro-isoquinolin-7-yl)-acrylamide] | > 1000 | 100 to 1000 | – |
| Cc1ccc(CC(=O)N2CCc3ccc(/C=C/C(=O)NO)cc3C2)cc1 [Example 64, (E)-N-Hydroxy-3-[2-(2-p-tolyl-acetyl)-1,2,3,4-tetrahydro-isoquinolin-7-yl]-acrylamide] | > 1000 | < 100 | – |
| COc1cccc(S(=O)(=O)N2CCc3cc(CCC(=O)NO)ccc3C2)c1 [Example 84, N-Hydroxy-3-[2-(3-methoxy-benzenesulfonyl)-1,2,3,4-tetrahydro-isoquinolin-6-yl]-propionamide] | > 1000 | 100 to 1000 | – |
| O=C(/C=C/c1ccc2c(c1)CCN(CCc1cnn3ccccc13)C2)NO [Example 69, (E)-N-Hydroxy-3-[2-(2-pyrazolo[1,5-a]pyridin-3-yl-ethyl)-1,2,3,4-tetrahydro-isoquinolin-6-yl]-acrylamide] | > 1000 | < 100 | – |
